Assay results as given in patent US8092816B2, “Insecticidal compositions for control of general household pests” (priority 2004, dated 2012).

Experiments:
Assay type in all cases: in vivo
[1] = system: American cockroach; experiment: Example 3: American cockroach knockdown and mortality, bifenthrin and imidacloprid
Source text: (§1) The following examples further illustrate the present invention, but, of course, should not be construed as in any way limiting its scope. The examples set forth certain biological data illustrating the efficacy of the compositions of the present invention in controlling general household pests. Each example embodies a separate test wherein the pests were randomly selected from a population at a random age. As a result, from example to example, the ages of the pests can be very different. This age difference potentially translates to different baselines for each example. Therefore, data should only be compared within the example and not from example to example due to the differences in age of the pests from example to example. Unless otherwise indicated, all parts, percentages, and the like are by weight. The spray chamber used in the examples was approximately 76 inches tall, 73 inches long and 31 inches deep with an adjustable shelf (approximately 22 inches deep) and a movable spray nozzle. The spray chambers were calibrated to deliver a volume of approximately 1 gallon of liquid per 1000 square feet of area at about 14 pounds per square inch of pressure. A DeVilbiss hand held sprayer (Atomizer model 152) manufactured by DeVilbiss located in Glendale Heights, Ill. was used in testing house flies and mosquitoes. The DeVilbiss was used to apply approximately 3-5 milliliters of product at about 10 pounds per square inch.
(§2) The compositions of the present invention were tested for American cockroach activity in the following manner:
Test compositions made up of TALSTARONE® MULTI-INSECTICIDE and a wettable powder of imidacloprid (MERIT) in distilled water were prepared that provided appropriate rates of application of combinations of bifenthrin and imidacloprid, as well as bifenthrin and imidacloprid alone.
(§3) The spray chamber was then calibrated to deliver the treatment solution at the desired volume and pressure over the desired area on the chamber shelf. Spray chamber shelf height was adjusted to approximately 18 inches from the spray tip. The shelf was then covered with aluminum foil and the center of the shelf from front-to-back and end-to-end was determined. A desired number of 4.0″ sieve circles were marked on the aluminum foil with a permanent marker. The inside of a desired number of PVC rings were coated with a petroleum jelly/mineral oil mixture (1:2 ratio). The PVC rings were place on the sieve circles. 10 male American cockroaches were placed inside each PVC ring. The sprayer was activated and the test compound was applied to each PVC ring interior. American cockroach knockdown and mortality were measured.

[2] = system: German cockroach; experiment: Example 8: German cockroach mortality, bifenthrin and thiamethoxam
Source text: as §1
The compositions of the present invention were tested for German cockroach activity in the following manner:
(§4) Test compositions made up of TALSTARONE® MULTI-INSECTICIDE and a water dispersible granular of thiamethoxam (CENTRIC) in distilled water were prepared that provided appropriate rates of application of combinations of bifenthrin and thiamethoxam, as well as bifenthrin and thiamethoxam alone.
as §3, with “male German” for “male American”, “interior. German” for “interior. American”, “cockroach” for “cockroach knockdown and”, “mortality was” for “mortality were”

[3] = system: American cockroach; experiment: Example 9: American cockroach knockdown and mortality, bifenthrin and thiamethoxam
Source text: as §1, §2, §4, §3

[4] = system: House Fly; experiment: Example 11: house fly knockdown and mortality, bifenthrin and thiamethoxam
Source text: as §1
(§5) The compositions of the present invention were tested for house fly activity in the following manner:
as §4
(§6) A DeVilbiss hand held sprayer was used to deliver the treatment solution at the desired volume and pressure. The house flies to be treated were collected and placed in screened 16 oz paper cups. The hand held sprayer was activated and the test compound was applied to each paper cup interior. House fly knockdown and mortality were measured.

[5] = system: House Flies; experiment: Example 17: house fly knockdown and mortality, bifenthrin and clothianidin
Source text: as §1, §5
Test compositions made up of TALSTARONE® MULTI-INSECTICIDE and a 16% a.i. water dispersible granular of clothianidin in distilled water were prepared that provided appropriate rates of application of combinations of bifenthrin and clothianidin, as well as bifenthrin and clothianidin alone.
as §6

[6] = rate of appln. 10 PPM (0.001% by weight)
[7] = rate of appln. 50 PPM (0.005% by weight)

Question: For `Cc1c(COC(=O)[C@@H]2[C@H](/C=C(\Cl)C(F)(F)F)C2(C)C)cccc1-c1ccccc1` (racemic) [A, 2-methylbiphenyl-3-ylmethyl (Z)-(1RS)-cis-3-(2-chloro-3,3,3-trifluoroprop-1-enyl)-2,2-dimethylcyclopropanecarboxylate], which “Knockdown Rate @ 15 minute” value ([1]; 10 PPM, 0.001% by weight) is on record?
Answer: Its value is 0%.

Question: What about the “Knockdown Rate @ 30 minute” value ([1]; 10 PPM, 0.001% by weight) of the same compound?
Answer: The value was 0%.

Question: And the “Mortality Rate @ 60 minutes” value ([1]; 10 PPM, 0.001% by weight)?
Answer: The value was 0%.

Question: What about the “Mortality Rate @ 120 minutes” value ([1]; 10 PPM, 0.001% by weight) of the same compound?
Answer: Its value is 0%.

Question: What about the “Mortality Rate @ 4 hours” value ([1]; 10 PPM, 0.001% by weight) of the same compound?
Answer: The value was 5%.

Question: What about the “Mortality Rate @ 1 day” value ([1]; 10 PPM, 0.001% by weight) of the same compound?
Answer: Its value is 15%.

Question: And the “Mortality Rate @ 2 days” value ([1]; 10 PPM, 0.001% by weight)?
Answer: Its value is 25%.

Question: And the “Knockdown Rate @ 15 minute” value ([1]; 50 PPM, 0.005% by weight)?
Answer: Its value is 0%.

Question: And the “Knockdown Rate @ 30 minute” value ([1]; 50 PPM, 0.005% by weight)?
Answer: Its value is 0%.

Question: What about the “Mortality Rate @ 60 minutes” value ([1]; 50 PPM, 0.005% by weight) of the same compound?
Answer: The value was 5%.

Question: What about the “Mortality Rate @ 120 minutes” value ([1]; 50 PPM, 0.005% by weight) of the same compound?
Answer: Its value is 5%.

Question: What about the “Mortality Rate @ 4 hours” value ([1]; 50 PPM, 0.005% by weight) of the same compound?
Answer: Its value is 10%.

Question: What about the “Mortality Rate @ 1 day” value ([1]; 50 PPM, 0.005% by weight) of the same compound?
Answer: Its value is 65%.

Question: And the “Mortality Rate @ 2 days” value ([1]; 50 PPM, 0.005% by weight)?
Answer: The value was 70%.

Question: And the “Mortality Rate @ 60 minutes” value ([2]; 10 PPM, 0.001% by weight)?
Answer: Its value is 8%.

Question: What about the “Mortality Rate @ 120 minutes” value ([2]; 10 PPM, 0.001% by weight) of the same compound?
Answer: Its value is 33%.

Question: And the “Mortality Rate @ 1 day” value ([2]; 10 PPM, 0.001% by weight)?
Answer: The value was 35%.

Question: And the “Mortality Rate @ 2 day” value ([2]; 10 PPM, 0.001% by weight)?
Answer: Its value is 60%.

Question: What about the “Mortality Rate @ 4 days” value ([2]; 10 PPM, 0.001% by weight) of the same compound?
Answer: Its value is 98%.

Question: What about the “Mortality Rate @ 60 minutes” value ([2]; 50 PPM, 0.005% by weight) of the same compound?
Answer: Its value is 15%.

Question: What about the “Mortality Rate @ 120 minutes” value ([2]; 50 PPM, 0.005% by weight) of the same compound?
Answer: Its value is 48%.

Question: What about the “Mortality Rate @ 1 day” value ([2]; 50 PPM, 0.005% by weight) of the same compound?
Answer: Its value is 58%.

Question: And the “Mortality Rate @ 2 day” value ([2]; 50 PPM, 0.005% by weight)?
Answer: Its value is 100%.

Question: What about the “Mortality Rate @ 4 days” value ([2]; 50 PPM, 0.005% by weight) of the same compound?
Answer: The value was 100%.

Question: What about the “Knockdown Rate @ 15 minute” value ([3]; 10 PPM, 0.001% by weight) of the same compound?
Answer: Its value is 0%.

Question: And the “Knockdown Rate @ 30 minute” value ([3]; 10 PPM, 0.001% by weight)?
Answer: The value was 0%.

Question: And the “Mortality Rate @ 60 minutes” value ([3]; 10 PPM, 0.001% by weight)?
Answer: Its value is 0%.

Question: And the “Mortality Rate @ 120 minutes” value ([3]; 10 PPM, 0.001% by weight)?
Answer: Its value is 0%.

Question: And the “Mortality Rate @ 4 hours” value ([3]; 10 PPM, 0.001% by weight)?
Answer: Its value is 0%.

Question: What about the “Mortality Rate @ 1 day” value ([3]; 10 PPM, 0.001% by weight) of the same compound?
Answer: The value was 5%.

Question: And the “Knockdown Rate @ 15 minute” value ([3]; 50 PPM, 0.005% by weight)?
Answer: Its value is 0%.

Question: What about the “Knockdown Rate @ 30 minute” value ([3]; 50 PPM, 0.005% by weight) of the same compound?
Answer: Its value is 0%.

Question: And the “Mortality Rate @ 60 minutes” value ([3]; 50 PPM, 0.005% by weight)?
Answer: Its value is 0%.

Question: What about the “Mortality Rate @ 120 minutes” value ([3]; 50 PPM, 0.005% by weight) of the same compound?
Answer: Its value is 0%.

Question: What about the “Mortality Rate @ 4 hours” value ([3]; 50 PPM, 0.005% by weight) of the same compound?
Answer: The value was 0%.

Question: And the “Mortality Rate @ 1 day” value ([3]; 50 PPM, 0.005% by weight)?
Answer: The value was 30%.

Question: And the “Knockdown Rate @ 15 minute” value ([4]; A 10 PPM, 0.001% by weight)?
Answer: Its value is 0%.

Question: What about the “Knockdown Rate @ 30 minute” value ([4]; A 10 PPM, 0.001% by weight) of the same compound?
Answer: Its value is 0%.

Question: What about the “Knockdown Rate @ 45 minutes” value ([4]; A 10 PPM, 0.001% by weight) of the same compound?
Answer: Its value is 6%.

Question: And the “Knockdown Rate @ 60 minutes” value ([4]; A 10 PPM, 0.001% by weight)?
Answer: Its value is 19%.

Question: And the “Knockdown Rate @ 120 minutes” value ([4]; A 10 PPM, 0.001% by weight)?
Answer: The value was 19%.

Question: What about the “Knockdown Rate @ 4 hours” value ([4]; A 10 PPM, 0.001% by weight) of the same compound?
Answer: The value was 48%.

Question: What about the “Mortality Rate @ 1 day” value ([4]; A 10 PPM, 0.001% by weight) of the same compound?
Answer: The value was 3%.

Question: And the “Knockdown Rate @ 15 minute” value ([4]; A 50 PPM, 0.005% by weight)?
Answer: The value was 0%.

Question: And the “Knockdown Rate @ 30 minute” value ([4]; A 50 PPM, 0.005% by weight)?
Answer: The value was 19%.

Question: And the “Knockdown Rate @ 45 minutes” value ([4]; A 50 PPM, 0.005% by weight)?
Answer: Its value is 47%.

Question: What about the “Knockdown Rate @ 60 minutes” value ([4]; A 50 PPM, 0.005% by weight) of the same compound?
Answer: Its value is 59%.

Question: And the “Knockdown Rate @ 120 minutes” value ([4]; A 50 PPM, 0.005% by weight)?
Answer: The value was 63%.

Question: And the “Knockdown Rate @ 4 hours” value ([4]; A 50 PPM, 0.005% by weight)?
Answer: Its value is 100%.

Question: What about the “Mortality Rate @ 1 day” value ([4]; A 50 PPM, 0.005% by weight) of the same compound?
Answer: The value was 63%.

Question: And the “Knockdown Rate @ 15 minute” value [5, 6]?
Answer: Its value is 0%.

Question: And the “Knockdown Rate @ 30 minute” value [5, 6]?
Answer: Its value is 0%.

Question: What about the “Knockdown Rate @ 45 minutes” value [5, 6] of the same compound?
Answer: Its value is 0%.

Question: What about the “Knockdown Rate @ 60 minutes” value [5, 6] of the same compound?
Answer: Its value is 0%.

Question: What about the “Knockdown Rate @ 120 minutes” value [5, 6] of the same compound?
Answer: Its value is 3%.

Question: And the “Knockdown Rate @ 180 minutes” value [5, 6]?
Answer: Its value is 3%.

Question: And the “Knockdown Rate @ 4 hours” value [5, 6]?
Answer: The value was 3%.

Question: And the “Mortality Rate @ 1 day” value [5, 6]?
Answer: Its value is 3%.

Question: And the “Knockdown Rate @ 15 minute” value [5, 7]?
Answer: Its value is 3%.

Question: And the “Knockdown Rate @ 30 minute” value [5, 7]?
Answer: The value was 55%.

Question: And the “Knockdown Rate @ 45 minutes” value [5, 7]?
Answer: Its value is 66%.

Question: What about the “Knockdown Rate @ 60 minutes” value [5, 7] of the same compound?
Answer: Its value is 68%.

Question: And the “Knockdown Rate @ 120 minutes” value [5, 7]?
Answer: The value was 74%.

Question: What about the “Knockdown Rate @ 180 minutes” value [5, 7] of the same compound?
Answer: The value was 74%.

Question: And the “Knockdown Rate @ 4 hours” value [5, 7]?
Answer: Its value is 76%.

Question: And the “Mortality Rate @ 1 day” value [5, 7]?
Answer: Its value is 79%.
